Test results as given in PubChem BioAssay AID256 (DTP/NCI, 2004).
Several values for one entry are separate records, joined by “and”; a condition that tells them apart may be missing. Identical values can stand only once. Inconclusive results and toxic doses are left out. Rule for the calls: active = survival T/C of 150% or more; inactive = T/C below 125% in these data.

System: CD2F1 mice, L1210 leukemia ip, survival T/C
Assay: NCI In Vivo Anticancer Drug Screen. Data for tumor model L1210 Leukemia (intraperitoneal) in CD2F1 (CDF1) mice
Conditions: higher = longer survival
Method in brief: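 Vehicle-treated tumor-bearing mice served as controls (C) for compound-treated mice (T). Reported figure is T divided by C.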

[1] = endpoint: mean survival time, dose: 50.0 mg/kg/injection, schedule: Q01DX009 (ip), vehicle: saline with Tween-80
[2] = endpoint: mean survival time, dose: 100.0 mg/kg/injection, schedule: Q01DX009 (ip), vehicle: saline with Tween-80
[3] = endpoint: mean survival time, dose: 200.0 mg/kg/injection, schedule: Q01DX009 (ip), vehicle: saline with Tween-80
[4] = endpoint: mean survival time, dose: 100.0 mg/kg/injection, schedule: Q04DX003 (ip), vehicle: saline
[5] = endpoint: mean survival time, dose: 200.0 mg/kg/injection, schedule: Q04DX003 (ip), vehicle: saline
[6] = endpoint: mean survival time, dose: 400.0 mg/kg/injection, schedule: Q04DX003 (ip), vehicle: saline
[7] = endpoint: mean survival time, dose: 100.0 mg/kg/injection, schedule: Q04DX003 (ip), vehicle: saline with Tween-80
[8] = endpoint: mean survival time, dose: 200.0 mg/kg/injection, schedule: Q04DX003 (ip), vehicle: saline with Tween-80
[9] = endpoint: mean survival time, dose: 100.0 mg/kg/injection, schedule: Q04DX002 (ip), vehicle: saline with Tween-80
[10] = endpoint: mean survival time, dose: 200.0 mg/kg/injection, schedule: Q04DX002 (ip), vehicle: saline with Tween-80

Measured: T/C

CC1(C)C(C#N)C(=O)N(Cc2ccccc2)C(=O)C1C#N (stereo not drawn)
inactive: [1] 98 % of control | [2] 107 % of control | [3] 98 % of control

O=S(=O)(O)CN(CCN(CS(=O)(=O)O)CS(=O)(=O)O)CS(=O)(=O)O
inactive: endpoint: mean survival time, dose: 100.0 mg/kg/injection, schedule: Q01DX009 (ip), vehicle: saline sonified 96 % of control | [4] 109 % of control | endpoint: mean survival time, dose: 200.0 mg/kg/injection, schedule: Q01DX009 (ip), vehicle: saline sonified 92 % of control | [5] 97 % of control | endpoint: mean survival time, dose: 400.0 mg/kg/injection, schedule: Q01DX009 (ip), vehicle: saline sonified 91 % of control | [6] 97 % of control

O=C(O)/C=C/C(=O)Nc1cccc2ccccc12
inactive: [1] 105 % of control | [2] 100 % of control | [7] 95 % of control | [3] 89 % of control | [8] 105 % of control

O=[N+]([O-])c1cc(Cl)cc2c1NP(=S)(c1ccccc1)N2 (stereo not drawn)
inactive: endpoint: mean survival time, dose: 25.0 mg/kg/injection, schedule: Q04DX002 (ip), vehicle: saline with Tween-80 91 % of control | endpoint: mean survival time, dose: 50.0 mg/kg/injection, schedule: Q04DX002 (ip), vehicle: saline with Tween-80 102 % of control | [9] 91 % of control | [10] 98 % of control

CSCC(NC(=O)OCc1ccccc1)C(=O)O (stereo not drawn)
inactive: [7] 101 % of control | [8] 101 % of control

Cc1ccnc(OCCCCCNCCS)c1
inactive: endpoint: mean survival time, dose: 75.0 mg/kg/injection, schedule: Q01DX001 (ip), vehicle: saline 98 % of control | endpoint: mean survival time, dose: 150.0 mg/kg/injection, schedule: Q01DX001 (ip), vehicle: saline 98 % of control

CC(C)(C)OC(=O)NC(Cc1c[nH]c2ccccc12)C(=O)ON1C(=O)CCC1=O (stereo not drawn)
inactive: [7] 95 % of control | [8] 95 % of control

CC1C=CC(C(=O)Nc2ccc(Cl)c(Cl)c2)N1C (stereo not drawn)
inactive: [8] 92 % of control

O=C(O)CN(CC(=O)O)CC(O)CN(CC(=O)O)CC(=O)O
inactive: endpoint: mean survival time, dose: 100.0 mg/kg/injection, schedule: Q01DX001 (ip), vehicle: saline 98 % of control | endpoint: mean survival time, dose: 200.0 mg/kg/injection, schedule: Q01DX001 (ip), vehicle: saline 105 % of control | endpoint: mean survival time, dose: 400.0 mg/kg/injection, schedule: Q01DX001 (ip), vehicle: saline 93 % of control

CC(C)OC(=O)Nc1ccccc1F
inactive: endpoint: mean survival time, dose: 100.0 mg/kg/injection, schedule: Q01DX009 (ip), vehicle: other 97 % of control | endpoint: mean survival time, dose: 200.0 mg/kg/injection, schedule: Q01DX009 (ip), vehicle: other 96 % of control | endpoint: mean survival time, dose: 400.0 mg/kg/injection, schedule: Q01DX009 (ip), vehicle: other 94 % of control

CC(=O)N/N=C\C1=CCC=C(Br)S1
inactive: [1] 107 % of control | endpoint: mean survival time, dose: 100.0 mg/kg/injection, schedule: Q01DX001 (ip), vehicle: saline with Tween-80 93 % of control | [2] 107 % of control | endpoint: mean survival time, dose: 200.0 mg/kg/injection, schedule: Q01DX001 (ip), vehicle: saline with Tween-80 102 % of control | [3] 116 % of control

O=[N+]([O-])c1ccc(SSc2ccc([N+](=O)[O-])cn2)nc1
inactive: [1] 93 % of control | [2] 89 % of control | [7] 100 % of control | [8] 100 % of control

NCCS/C=C/C(=O)O
inactive: [4] 97 % of control | [5] 109 % of control | [6] 101 % of control

CN(C)Cc1[c-]c(CN(C)C)ccc1.[Cl][Pt]
inactive: endpoint: median survival time, dose: 1.56 mg/kg/injection, schedule: Q04DX003 (ip), vehicle: saline 101 % of control | endpoint: median survival time, dose: 3.12 mg/kg/injection, schedule: Q04DX003 (ip), vehicle: saline 91 % of control and 107 % of control | endpoint: median survival time, dose: 6.25 mg/kg/injection, schedule: Q04DX003 (ip), vehicle: saline 111 % of control | endpoint: median survival time, dose: 12.5 mg/kg/injection, schedule: Q04DX003 (ip), vehicle: saline 96 % of control and 107 % of control | endpoint: median survival time, dose: 25.0 mg/kg/injection, schedule: Q04DX003 (ip), vehicle: saline 100 % of control and 107 % of control | endpoint: median survival time, dose: 50.0 mg/kg/injection, schedule: Q04DX003 (ip), vehicle: saline 100 % of control and 101 % of control | endpoint: median survival time, dose: 100.0 mg/kg/injection, schedule: Q04DX003 (ip), vehicle: saline 98 % of control

O=C1Cc2ccccc2CO1
inactive: [7] 97 % of control | [8] 94 % of control | endpoint: mean survival time, dose: 400.0 mg/kg/injection, schedule: Q04DX003 (ip), vehicle: saline with Tween-80 105 % of control

O=C(OCCC[P+](c1ccccc1)(c1ccccc1)c1ccccc1)c1ccccc1
inactive: endpoint: mean survival time, dose: 6.25 mg/kg/injection, schedule: Q01DX001 (ip), vehicle: saline with Tween-80 109 % of control | endpoint: mean survival time, dose: 6.25 mg/kg/injection, schedule: Q01DX009 (ip), vehicle: saline with Tween-80 110 % of control | endpoint: mean survival time, dose: 12.5 mg/kg/injection, schedule: Q01DX001 (ip), vehicle: saline with Tween-80 114 % of control | endpoint: mean survival time, dose: 12.5 mg/kg/injection, schedule: Q01DX009 (ip), vehicle: saline with Tween-80 114 % of control | endpoint: mean survival time, dose: 25.0 mg/kg/injection, schedule: Q01DX001 (ip), vehicle: saline with Tween-80 115 % of control | endpoint: mean survival time, dose: 25.0 mg/kg/injection, schedule: Q01DX009 (ip), vehicle: saline with Tween-80 112 % of control

CC1(O)CC23CC(O)C4(O)C(CC(O)C4(C)C)C(C)(O)C2CCC1C3O (stereo not drawn)
inactive: endpoint: median survival time, dose: 0.06 mg/kg/injection, schedule: Q01DX009 (ip), vehicle: Klucel (hydroxypropylcellulose) (HPC) 97 % of control | endpoint: median survival time, dose: 0.12 mg/kg/injection, schedule: Q01DX009 (ip), vehicle: Klucel (hydroxypropylcellulose) (HPC) 96 % of control | endpoint: median survival time, dose: 0.25 mg/kg/injection, schedule: Q01DX009 (ip), vehicle: Klucel (hydroxypropylcellulose) (HPC) 102 % of control | endpoint: median survival time, dose: 0.5 mg/kg/injection, schedule: Q01DX009 (ip), vehicle: Klucel (hydroxypropylcellulose) (HPC) 97 % of control

CC(=O)c1cc2ccccc2o1
inactive: endpoint: mean survival time, dose: 6.25 mg/kg/injection, schedule: Q04DX003 (ip), vehicle: saline with Tween-80 96 % of control | endpoint: mean survival time, dose: 12.5 mg/kg/injection, schedule: Q04DX003 (ip), vehicle: saline with Tween-80 96 % of control | endpoint: mean survival time, dose: 25.0 mg/kg/injection, schedule: Q04DX003 (ip), vehicle: saline with Tween-80 101 % of control | endpoint: mean survival time, dose: 50.0 mg/kg/injection, schedule: Q04DX003 (ip), vehicle: saline with Tween-80 95 % of control

Cc1ccc([I+]c2ccc(C)cc2)cc1
inactive: endpoint: mean survival time, dose: 0.25 mg/kg/injection, schedule: Q01DX009 (ip), vehicle: Klucel (hydroxypropylcellulose) (HPC) 98 % of control | endpoint: mean survival time, dose: 0.5 mg/kg/injection, schedule: Q01DX009 (ip), vehicle: Klucel (hydroxypropylcellulose) (HPC) 98 % of control | endpoint: mean survival time, dose: 1.0 mg/kg/injection, schedule: Q01DX009 (ip), vehicle: Klucel (hydroxypropylcellulose) (HPC) 105 % of control

O=C(OCCOC(=O)N1CCOCC1)N1CCOCC1
inactive: [9] 101 % of control | [10] 97 % of control | endpoint: mean survival time, dose: 400.0 mg/kg/injection, schedule: Q04DX002 (ip), vehicle: saline with Tween-80 101 % of control
